{"source": "patent US8551456B2", "about": "“Combination therapy and methods for treating bacterial biofilms” (priority 2010, dated 2013)", "key": {"[1]": {"system": "P. aeruginosa wild-type PAO1 biofilms", "assay": "Combined TMP and antibiotic treatment of biofilms in the dark, CSLM LIVE/DEAD", "assay_type": "cell-based, Pseudomonas aeruginosa", "conditions": "for gain in killing by the addition of TMP to the antibiotic / red (dead) staining with antibiotic + TMP versus antibiotic alone (FIGS. 5A and 5B) / Effect on P. aeruginosa biofilm cells, TMP + Antibiotic, pH 7: TMP 225 μM 10 min then antibiotic 100 μg ml^−1 2 h", "procedure": "Biofilms were grown on glass slides as described above. […] Slides were incubated in tobramycin for 2 h at 37° C. All incubations were performed in the dark. Cell viability within biofilms was assessed using the LIVE/DEAD BacLight bacterial viability kit and visualized with an Olympus FV1000 CSLM as described above.\nBacterial viability was determined using the LIVE/DEAD BacLight Bacterial Viability assay. The images show horizontal optical sections from the midpoint of the biofilms flanked by vertical optical sections in biofilms treated with panel A showing tobramycin alone and panel B showing TMP+tobramycin.\nUsing the same protocol used in Example 3 for tobramycin, additional antibiotics were tested to aid in the elucidation of the mechanism of bacterial biofilm disruption in the absence of photoactivation.\nBacterial viability was determined using the LIVE/DEAD BacLight Bacterial Viability assay. Cells staining red are considered dead while cells staining green are alive. […] In summary, panels C, E, G, I, K and M received the respective antibiotic alone, and panels B, D, F, H, J, L and N were treated with the combination of TMP and antibiotic."}, "[2]": {"system": "P. aeruginosa PAO1 planktonic cell populations", "conditions": "TMP 2.5 mg ml^−1; cited from earlier work"}, "S. aureus": {"system": "S. aureus", "conditions": "cited from earlier work"}, "[3]": {"system": "P. aeruginosa PAO1 wild-type biofilms", "assay": "CSLM of static biofilms with LIVE/DEAD BacLight viability assay", "assay_type": "cell-based, Pseudomonas aeruginosa", "procedure": "(§1) P. aeruginosa PAO1 wild-type and isogenic pqsA mutant strain were obtained from Eb Pesci (East Carolina University School of Medicine). P. aeruginosa strains were grown aerobically with shaking in Minimal Salts medium (40 mM K2HPO4, 20 mM KH2PO4, 7.6 mM [NH4]2SO4, 0.2 mM MgSO4.7H2O, 9.2×10^−3 mMFeCl3.6H2O, 0.2% [wt/vol] glucose; adjusted pH 7.0) at 37° C. (4, 17). For static biofilms, P. aeruginosa strains were grown overnight in Minimal Salts medium at 37° C. with shaking. The following day, bacteria were diluted in fresh media to an OD590nm of 0.15. Five hundred microliters of the standardized culture was added to sterile polystyrene cuvettes and incubated statically for 24 h at 37° C. For examination of static biofilms using confocal laser scanning microscopy (CSLM), sterile microscope slides were submerged in standardized cell suspensions and incubated statically at 37° C. for 24 h.\n(§2) Samples were irradiated for various exposure times at an intensity of 192 Joules/cm^2.\nNegative control slides were transferred to 50 ml tubes containing only PBS. […] Bacterial viability was assessed in biofilm cultures using the LIVE/DEAD BacLight bacterial viability assay (Molecular Probes Inc., Eugene, Oreg.), containing SYTO9 and propidium iodide dyes. Biofilms were visualized with an Olympus FV1000 CSLM (Olympus America, Center Valley, Pa.) using a 60× oil immersion objective. Biofilm images were acquired in 0.4 μm optical sections for the entire thickness of the biofilm.\nBacterial viability was determined using the LIVE/DEAD BacLight Bacterial Viability assay. The cells in panels C-F show significant staining in red (considered dead) while cells in panels A, B, G and H show predominate staining in green (alive). […] The few remaining attached cells were nonviable."}, "[4]": {"system": "P. aeruginosa PAO1 wild-type biofilms", "assay": "Viable plate counts of cells from static biofilms after TMP and irradiation", "assay_type": "cell-based, Pseudomonas aeruginosa", "conditions": "wild-type PAO1, 225 μM TMP, 10 min of irradiation", "procedure": "as §1, §2\n(§3) Static biofilms formed in sterile polystyrene cuvettes, as described above, were used to quantify cell survival. […] Cells released from the biofilm following treatment were collected from the supernatant by centrifugation and resuspended in PBS. The remaining attached biofilm was washed once and resuspended in PBS. The number of viable cells in the supernatant and attached biofilms following treatment were determined by plating on LB (1.5% agar) plates that were incubated for 24 h at 37° C.\n(§4) Cells were collected from the supernatant of treated biofilms, as well as from the remaining attached biofilm. Cell suspensions were diluted and plated onto LB (1.5% agar) plates and incubated 24 h at 37° C. CFU were used to determine the surviving fraction. […] The recovered supernatants contained the cells sloughed off as the result of TPM exposure and irradiation."}, "[5]": {"system": "P. aeruginosa pqsA mutant biofilms", "assay": "Viable plate counts of cells from static biofilms after TMP and irradiation", "assay_type": "cell-based, Pseudomonas aeruginosa", "conditions": "225 μM TMP, irradiated 10 min", "procedure": "as §1, §2, §3, §4"}, "[6]": {"system": "P. aeruginosa pqsA mutant biofilms", "assay_type": "cell-based, Pseudomonas aeruginosa", "procedure": "as §1, §2\nNegative control slides were transferred to 50 ml tubes containing only PBS. […] Bacterial viability was assessed in biofilm cultures using the LIVE/DEAD BacLight bacterial viability assay (Molecular Probes Inc., Eugene, Oreg.), containing SYTO9 and propidium iodide dyes. […]\nBacterial viability was determined using the LIVE/DEAD BacLight Bacterial Viability assay."}, "[7]": {"system": "wild-type PAO1 isolates grown in biofilms", "conditions": "cited from earlier work"}, "pUCP18 plasmid DNA": {"system": "pUCP18 plasmid DNA", "assay": "TMP induced degradation of plasmid DNA, agarose gel electrophoresis", "assay_type": "biochemical", "conditions": "100 or 225 μM TMP", "procedure": "Plasmid DNA with and without TMP was irradiated for designated times. Prior to light exposure, samples of DNA supplemented with TMP were collected and incubated in the dark for comparison. DNA was examined using agarose gel electrophoresis.\nThe untreated control samples had the three expected forms of plasmid DNA: covalently closed circles, relaxed circular, and linear cut (FIG. 3: lanes 1 and 7). Plasmid DNA exposed to light only appeared similar to the control (FIG. 3: lanes 2 and 8)."}, "[8]": {"system": "extracellular DNA in P. aeruginosa wild-type biofilms", "assay": "Quantification of extracellular biofilm DNA with DNA stains such as Pico Green", "assay_type": "cell-based, Pseudomonas aeruginosa", "conditions": "data not shown, possible competition of TMP with Pico Green"}}, "note": "“Also recorded” adds a separate entry of the source."}
{"compound": "O=C(O)c1cn(C2CC2)c2cc(N3CCNCC3)c(F)cc2c1=O", "note": "[Ciprofloxacin]", "values": [{"measurement": "gain in killing by the addition of TMP to the antibiotic", "setting": "[1]; dark", "value": "no gain in killing"}, {"measurement": "red (dead) staining with antibiotic + TMP versus antibiotic alone (FIGS. 5A and 5B)", "setting": "[1]; dark", "value": "little or no increase in red staining"}, {"measurement": "Effect on P. aeruginosa biofilm cells, TMP + Antibiotic, pH 7", "setting": "[1]; dark", "value": "+"}]}
{"compound": "C[n+]1ccc(-c2c3nc(c(-c4cc[n+](C)cc4)c4ccc([nH]4)c(-c4cc[n+](C)cc4)c4nc(c(-c5cc[n+](C)cc5)c5ccc2[nH]5)C=C4)C=C3)cc1.Cc1ccc(S(=O)(=O)[O-])cc1.Cc1ccc(S(=O)(=O)[O-])cc1.Cc1ccc(S(=O)(=O)[O-])cc1.Cc1ccc(S(=O)(=O)[O-])cc1", "note": "[TMP, 5,10,15,20-tetrakis(1-methyl-pyridino)-21H,23H-porphine, tetra-p-tosylate salt]", "values": [{"measurement": "reduction of planktonic cell populations", "setting": "[2]", "value": "> 10^2 cfu ml^−1"}, {"measurement": "S. aureus survival", "setting": "S. aureus; TMP alone", "value": "reduce S. aureus survival"}, {"measurement": "effect on established S. aureus biofilms", "setting": "S. aureus; TMP combined with vancomycin", "value": "disrupt established biofilms"}, {"measurement": "biofilm density and cell viability (CSLM, LIVE/DEAD)", "setting": "[3]; wild-type PAO1, 100 μM TMP, irradiated 10 min", "value": "decrease in biofilm density and the majority of cells within the biofilm were non-viable"}, {"measurement": "biofilm disruption and clearance (CSLM, LIVE/DEAD)", "setting": "[3]; wild-type PAO1, 225 μM TMP, 10 min of irradiation", "value": "nearly complete disruption and clearance; also recorded: completely disrupted with few cells remaining attached"}, {"measurement": "biofilm structure and cell viability without photoactivation (dark toxicity)", "setting": "[3]; wild-type PAO1, 225 μM TMP, dark", "value": "expanded in volume without a loss of cell viability; also recorded: no dark toxicity; also recorded: did not lead to clearance of wild-type biofilms"}, {"measurement": "decrease in viable cells in the attached biofilm population", "setting": "[4]; attached cells", "value": 4.1, "unit": "log10"}, {"measurement": "reduction in the number of viable cells in the recovered supernatants", "setting": "[4]; supernatant cells", "value": 4.5, "unit": "log10"}, {"measurement": "decrease in cell viability of attached cells", "setting": "[5]; attached cells", "value": 3.9, "unit": "log10"}, {"measurement": "reduction in cell viability of cells collected from supernatants", "setting": "[5]; supernatant cells", "value": 4.2, "unit": "log10"}, {"measurement": "cell viability and biofilm architecture without photoactivation", "setting": "[6]; 225 μM TMP, dark", "value": "did not affect cell viability or disrupt the architecture"}, {"measurement": "cell viability of attached cells (CSLM, LIVE/DEAD)", "setting": "[6]; 100 or 225 μM TMP, irradiated 10 min", "value": "decrease in cell viability of attached cells; also recorded: high levels of killing"}, {"measurement": "reduction of wild-type PAO1 isolates grown in biofilms", "setting": "[7]; TMP 5.0 mg ml^−1, irradiated for 5 min", "value": 1.2, "unit": "log10"}, {"measurement": "TMP concentration necessary to achieve the same level of killing in bacteria enmeshed within biofilms", "setting": "[7]; same level of killing as planktonic (>10^2 cfu ml^−1)", "value": 5.0, "unit": "mg/mL"}, {"measurement": "degradation of plasmid DNA", "setting": "pUCP18 plasmid DNA; irradiation for 5 or 30 min", "value": "complete degradation"}, {"measurement": "migration of plasmid DNA in gel without photoactivation", "setting": "pUCP18 plasmid DNA; nonirradiated", "value": "retarded migration of DNA; also recorded: migration was retarded"}, {"measurement": "biofilm DNA after TMP and light", "setting": "[8]; TMP and light", "value": "decrease was observed in biofilm DNA"}, {"measurement": "biofilm DNA after TMP in the absence of light", "setting": "[8]; TMP, no light", "value": "decrease in biofilm DNA"}, {"measurement": "toxicity to human fibroblasts", "setting": "human fibroblasts", "value": "does not appear to be toxic to human fibroblasts"}]}
{"compound": "CC1(C)S[C@@H]2[C@H](NC(=O)C(C(=O)O)c3ccccc3)C(=O)N2[C@H]1C(=O)O", "note": "(stereo partly drawn) [carbenicillin]", "values": [{"measurement": "gain in killing by the addition of TMP to the antibiotic", "setting": "[1]; dark", "value": "no enhanced killing"}, {"measurement": "red (dead) staining with antibiotic + TMP versus antibiotic alone (FIGS. 5A and 5B)", "setting": "[1]; dark", "value": "little or no increase in red staining"}, {"measurement": "Effect on P. aeruginosa biofilm cells, TMP + Antibiotic, pH 7", "setting": "[1]; dark", "value": "−"}]}
{"compound": "NC[C@H]1O[C@H](O[C@H]2[C@H](O)[C@@H](O[C@H]3O[C@H](CO)[C@@H](O)[C@H](N)[C@H]3O)[C@H](N)C[C@@H]2N)[C@H](O)[C@@H](O)[C@@H]1O", "note": "[kanamycin]", "values": [{"measurement": "Effect on P. aeruginosa biofilm cells, TMP + Antibiotic, pH 7", "setting": "[1]; dark", "value": "+"}]}
{"compound": "NC[C@H]1O[C@H](O[C@H]2[C@H](O)[C@@H](O[C@H]3O[C@H](CO)[C@@H](O)[C@H](N)[C@H]3O)[C@H](N)C[C@@H]2N)[C@H](N)C[C@@H]1O", "note": "[tobramycin]", "values": [{"measurement": "cell viability and biofilm clearance, TMP then antibiotic", "setting": "[1]; TMP 225 μM 10 min then tobramycin 100 μg ml^−1 2 h, dark", "value": "predominate amount of cells staining red (dead); also recorded: substantial clearance of the biofilms and greater loss of cell viability throughout the biofilms than with either single treatment; also recorded: significant biofilm clearance and enhanced killing of cells"}, {"measurement": "effect of pH on the combination of tobramycin and TMP", "setting": "[1]; dark conditions, pH range of 4.0 to 8.0", "value": "enhancement of killing"}, {"measurement": "cell viability and biofilm clearance, antibiotic alone", "setting": "[1]; tobramycin alone 100 μg ml^−1, 2 h, dark, no TMP", "value": "cells predominately staining green (alive); also recorded: reduction in cell viability which was limited to cells near the surface of the biofilms; also recorded: did not result in substantial biofilm clearance and led to minimal killing of biofilm associated cells"}]}
{"compound": "CN[C@H](CC(C)C)C(=O)N[C@H]1C(=O)N[C@@H](CC(N)=O)C(=O)N[C@H]2C(=O)N[C@H]3C(=O)N[C@H](C(=O)N[C@H](C(=O)O)c4cc(O)cc(O)c4-c4cc3ccc4O)[C@H](O)c3ccc(c(Cl)c3)Oc3cc2cc(c3O[C@@H]2O[C@H](CO)[C@@H](O)[C@H](O)[C@H]2O[C@H]2C[C@](C)(N)[C@H](O)[C@H](C)O2)Oc2ccc(cc2Cl)[C@H]1O", "note": "[vancomycin]", "values": [{"measurement": "gain in killing by the addition of TMP to the antibiotic", "setting": "[1]; dark", "value": "substantially enhanced killing"}, {"measurement": "red (dead) staining with antibiotic + TMP versus antibiotic alone (FIGS. 5A and 5B)", "setting": "[1]; dark", "value": "predominately red staining"}]}
{"compound": "gentamicin", "values": [{"measurement": "gain in killing by the addition of TMP to the antibiotic", "setting": "[1]; dark", "value": "behaved similarly to tobramycin"}, {"measurement": "red (dead) staining with antibiotic + TMP versus antibiotic alone (FIGS. 5A and 5B)", "setting": "[1]; dark", "value": "significant increased red staining"}]}
